# Molecular target: T1, SLC-1 (Homo sapiens, UniProt Q99705)
# T1 construct: expressed in transfected cells; host or cells: CHO cells (human SLC-1 clone 57 / rat SLC-1 clone 44), membrane fraction
# Assay: Antagonistic activity using GTPγS binding assay (SLC-1 expression CHO cell membrane fraction, MCH-stimulated)
# Assay type: biochemical, human/rat
# Settings: [35S]-GTPγS binding to SLC-1 expression CHO cell membrane fraction in the presence of MCH, 25° C., 1 hr; read-out: Inhibitory activity (IC50: nM)
# Protocol: Determination of Antagonistic Activity of Test Compound Using GTP γ S Binding Assay
# Using human SLC-1 expression CHO cell clone 57 and rat SLC-1 expression CHO cell clone 44 described in WO01/82925, SLC-1 expression CHO cell membrane fractions were prepared by the following method. In phosphate buffered saline (pH 7.4) supplemented with 5 mM EDTA (ethylenediamine tetraacetic acid) were suspended human and rat SLC-1 expression CHO cells (1×10^8) and centrifuged. Homogenate buffer (10 ml, 10 mM NaHCO3, 5 mM EDTA, pH 7.5) was added to the pellets of the cells and, using Polytron Homogeniser, the mixture was homogenated. The supernatant obtained after centrifugation at 400×g for 15 min was further centrifuged at 100,000×g for 1 hr to give precipitate of the membrane fraction. […]
# The antagonistic activity of the test compound was determined as follows. […] Liquid scintillator (50 ml) was added to the glass filter and the residual radioactivity was determined by a liquid scintillation counter. Binding inhibition (%)=(radioactivity upon addition of test compound and MCH−radioactivity upon addition of DMSO solution)/(radioactivity upon addition of MCH−radioactivity upon addition of DMSO solution)×100
# From the binding inhibition (%), IC50 of the test compound was calculated.
# T1 sequence (Q99705 whole entry, species assumed): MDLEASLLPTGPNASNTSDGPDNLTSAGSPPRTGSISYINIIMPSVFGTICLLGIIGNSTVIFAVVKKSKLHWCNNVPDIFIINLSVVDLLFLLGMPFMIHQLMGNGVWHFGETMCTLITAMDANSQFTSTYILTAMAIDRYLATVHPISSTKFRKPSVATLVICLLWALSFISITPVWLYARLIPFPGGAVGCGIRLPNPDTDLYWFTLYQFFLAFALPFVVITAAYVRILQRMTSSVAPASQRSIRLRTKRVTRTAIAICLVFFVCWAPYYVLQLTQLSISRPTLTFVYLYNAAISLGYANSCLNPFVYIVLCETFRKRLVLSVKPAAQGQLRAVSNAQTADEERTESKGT
compound,measurement,value
"CC(c1ccc(CCNC(=O)c2ccc(-c3ccc(Cl)cc3)cc2)cc1)N1CCCCCC1 (stereo not shown) [Example 67, N-(2-{4-[1-(1-azepanyl)ethyl]phenyl}ethyl)-4′-chloro[1,1′-biphenyl]-4-carboxamide]",IC50,3 nM

# Reference: patent publication US7601868B2, “Amine derivative” (Takeda Pharmaceutical Company Limited, priority 2003, dated 2009)
